In ChEMBL document CHEMBL3885881, “DrugMatrix”:

Species: Rattus norvegicus
Test: DrugMatrix - Regimen: Daily Repeat
Assay type: toxicity, organism-based, Sprague-Dawley
Set-up: regimen Daily Repeat, gender Male, age 6-8 weeks
Settings: in vivo, po, route oral GAVAGE, […]; for ABSOLUTE BASOPHIL / ABSOLUTE EOSINOPHIL / ABSOLUTE LYMPHOCYTE / ABSOLUTE MONOCYTE / ABSOLUTE SEGMENTED NEUTROPHIL / BASOPHIL / EOSINOPHIL / ERYTHROCYTE COUNT / HEMATOCRIT / HEMOGLOBIN / LEUKOCYTE COUNT / LYMPHOCYTE / MEAN CORPUSCULAR HEMOGLOBIN / MEAN CORPUSCULAR HEMOGLOBIN CONCENTRATION / MEAN CORPUSCULAR VOLUME / MONOCYTE / NEUTROPHIL / NUCLEATED RED BLOOD CELLS / PLATELET COUNT: tissue Blood; for ALANINE AMINOTRANSFERASE / ALBUMIN / ALKALINE PHOSPHATASE / ASPARTATE AMINOTRANSFERASE / BLOOD UREA NITROGEN / CARBON DIOXIDE / CHLORIDE / CHOLESTEROL / CREATINE PHOSPHOKINASE / CREATININE / GLUCOSE / LACTATE DEHYDROGENASE / LIPASE / PHOSPHORUS / POTASSIUM / SODIUM / TOTAL BILIRUBIN / TOTAL PROTEIN / URIC ACID: tissue Plasma
[1] = 0 mg/kg, 72 h, dose level Control, time 3 day
[2] = 0 mg/kg, 120 h, dose level Control, time 5 day
[3] = 280 mg/kg, 72 h, dose level High, time 3 day

## CC/C(=C(/CC)c1ccc(O)cc1)c1ccc(O)cc1 [DIETHYLSTILBESTROL]
[1]
  ABSOLUTE BASOPHIL: 0 CELLS/uL
  ABSOLUTE EOSINOPHIL: 14 CELLS/uL
  ABSOLUTE LYMPHOCYTE: 11144.67 CELLS/uL
  ABSOLUTE MONOCYTE: 22.5 CELLS/uL
  ABSOLUTE SEGMENTED NEUTROPHIL: 535.5 CELLS/uL
  BASOPHIL: 0%
  EOSINOPHIL: 0.17%
  ERYTHROCYTE COUNT: 5.08 x10E6/uL
  HEMATOCRIT: 32.32%
  HEMOGLOBIN: 12.87 G/DL
  LEUKOCYTE COUNT: 11.72 x10E3/uL
  LYMPHOCYTE: 94.67%
  MEAN CORPUSCULAR HEMOGLOBIN: 25.37 pg
  MEAN CORPUSCULAR HEMOGLOBIN CONCENTRATION: 39.85 G/DL
  MEAN CORPUSCULAR VOLUME: 63.58 fL
  MONOCYTE: 0.17%
  NEUTROPHIL: 5%
  NUCLEATED RED BLOOD CELLS: 0 /100WBC
  PLATELET COUNT: 1084 x10E3/uL
  ALANINE AMINOTRANSFERASE: 67.5 u/L
  ALBUMIN: 4.02 G/DL
  ALKALINE PHOSPHATASE: 374.17 u/L
  ASPARTATE AMINOTRANSFERASE: 83.5 u/L
  BLOOD UREA NITROGEN: 14.5 mg/dL
  CARBON DIOXIDE: 30 mmol/L
  CHLORIDE: 100.5 MEQ/L
  CHOLESTEROL: 71.33 mg/dL
  CREATINE PHOSPHOKINASE: 268.33 u/L
  CREATININE: 0.16 mg/dL
  GLUCOSE: 170.5 mg/dL
  LACTATE DEHYDROGENASE: 81.17 u/L
  LIPASE: 16.67 u/L
  PHOSPHORUS: 10.07 mg/dL
  POTASSIUM: 5.03 MEQ/L
  SODIUM: 142.92 MEQ/L
  TOTAL BILIRUBIN: 0.17 mg/dL
  TOTAL PROTEIN: 5.63 G/DL
  URIC ACID: 0.5 mg/dL
[2]
  ABSOLUTE BASOPHIL: 0 CELLS/uL
  ABSOLUTE EOSINOPHIL: 37.5 CELLS/uL
  ABSOLUTE LYMPHOCYTE: 8049.5 CELLS/uL
  ABSOLUTE MONOCYTE: 82.83 CELLS/uL
  ABSOLUTE SEGMENTED NEUTROPHIL: 646.83 CELLS/uL
  BASOPHIL: 0%
  EOSINOPHIL: 0.5%
  ERYTHROCYTE COUNT: 5.36 x10E6/uL
  HEMATOCRIT: 33.9%
  HEMOGLOBIN: 13.02 G/DL
  LEUKOCYTE COUNT: 8.82 x10E3/uL
  LYMPHOCYTE: 90.17%
  MEAN CORPUSCULAR HEMOGLOBIN: 24.32 pg
  MEAN CORPUSCULAR HEMOGLOBIN CONCENTRATION: 38.42 G/DL
  MEAN CORPUSCULAR VOLUME: 63.32 fL
  MONOCYTE: 1.17%
  NEUTROPHIL: 8.17%
  NUCLEATED RED BLOOD CELLS: 0.17 /100WBC
  PLATELET COUNT: 1231.5 x10E3/uL
  ALANINE AMINOTRANSFERASE: 62 u/L
  ALBUMIN: 3.97 G/DL
  ALKALINE PHOSPHATASE: 303.67 u/L
  ASPARTATE AMINOTRANSFERASE: 84.5 u/L
  BLOOD UREA NITROGEN: 14.83 mg/dL
  CARBON DIOXIDE: 31.83 mmol/L
  CHLORIDE: 97 MEQ/L
  CHOLESTEROL: 68.83 mg/dL
  CREATINE PHOSPHOKINASE: 411.33 u/L
  CREATININE: 0.16 mg/dL
  GLUCOSE: 170.17 mg/dL
  LACTATE DEHYDROGENASE: 88.5 u/L
  LIPASE: 9.5 u/L
  PHOSPHORUS: 9.98 mg/dL
  POTASSIUM: 5.72 MEQ/L
  SODIUM: 141.62 MEQ/L
  TOTAL BILIRUBIN: 0.1 mg/dL
  TOTAL PROTEIN: 5.67 G/DL
  URIC ACID: 0.52 mg/dL
[3]
  ABSOLUTE BASOPHIL: 0 CELLS/uL
  ABSOLUTE EOSINOPHIL: 42 CELLS/uL
  ABSOLUTE LYMPHOCYTE: 6341.67 CELLS/uL
  ABSOLUTE MONOCYTE: 46.67 CELLS/uL
  ABSOLUTE SEGMENTED NEUTROPHIL: 836.33 CELLS/uL
  BASOPHIL: 0%
  EOSINOPHIL: 0.67%
  ERYTHROCYTE COUNT: 5.06 x10E6/uL
  HEMATOCRIT: 31.5%
  HEMOGLOBIN: 12.2 G/DL
  LEUKOCYTE COUNT: 7.27 x10E3/uL
  LYMPHOCYTE: 87%
  MEAN CORPUSCULAR HEMOGLOBIN: 24.13 pg
  MEAN CORPUSCULAR HEMOGLOBIN CONCENTRATION: 38.77 G/DL
  MEAN CORPUSCULAR VOLUME: 62.27 fL
  MONOCYTE: 0.67%
  NEUTROPHIL: 11.67%
  NUCLEATED RED BLOOD CELLS: 0 /100WBC
  PLATELET COUNT: 1040.67 x10E3/uL
  ALANINE AMINOTRANSFERASE: 64 u/L
  ALBUMIN: 3.57 G/DL
  ALKALINE PHOSPHATASE: 625.67 u/L
  ASPARTATE AMINOTRANSFERASE: 73 u/L
  BLOOD UREA NITROGEN: 16 mg/dL
  CARBON DIOXIDE: 23 mmol/L
  CHLORIDE: 107.33 MEQ/L
  CHOLESTEROL: 31.33 mg/dL
  CREATINE PHOSPHOKINASE: 341 u/L
  CREATININE: 0.17 mg/dL
  GLUCOSE: 156.67 mg/dL
  LACTATE DEHYDROGENASE: 103.33 u/L
  LIPASE: 8 u/L
  PHOSPHORUS: 9 mg/dL
  POTASSIUM: 5.01 MEQ/L
  SODIUM: 147.7 MEQ/L
  TOTAL BILIRUBIN: 0.27 mg/dL
  TOTAL PROTEIN: 5.5 G/DL
  URIC ACID: 0.53 mg/dL
